# Test results as given in patent US11814444B2, “Cyclic polypeptides for PCSK9 inhibition” (Ra Pharmaceuticals, Inc., priority 2018, dated 2023).
# Numbered stars: 1 amine (or outer) side, 2 acyl side, 3 side chain; on linkers, the order of the positions; unused ones are H or OH. Bridge positions count the residues as written; N and C are the ends. Square brackets hold non-standard residues; d marks the D form. Peptide text beside a SMILES is read from it. Trp(7-aza) = N[C@@H](Cc1c[nH]c2ncccc12)C(=O)O; X1 = C[C@@](N[*:1])(C(=O)[*:2])c1ccccc1; mXylylene = c1cc(C[*:1])cc(C[*:2])c1; Tle = CC(C)(C)[C@H](N)C(=O)O; αMeV = CC(C)[C@](C)(N)C(=O)O; Thp = NC1(C(=O)O)CCOCC1
# Tests used:
# Type in all cases: binding
# [1] = target: T1, PCSK9 (Homo sapiens, UniProt Q8NBP7); test: PCSK9 Alexa FRET Plus assay (displacement of AlexaFluor647 tagged cyclic peptide Reagent B); details: 0.5 nM PCSK9, 960 nM AF cyclic peptide Reagent B
# Experimental: A solution containing 1 nM biotinylated PCSK9+2.5 nM Lance Streptavidin Europium (Strep-Eu) was made in 50 mM HEPES pH 7.4, 0.15 M NaCl, 5 mM CaCl2), 0.01% BSA, and 0.01% Surfactant P20. A separate solution containing 1920 nM of the AlexaFluor tagged cyclic peptide was made in the same buffer system. An Echo was used to transfer 0.075 ul of compound plus 0.675 ul of DMSO to each well of an assay plate followed by the addition of 15 ul of PCSK9+Stept-Eu and 15 ul of AF peptide. The final assay volume was 30.750 ul containing 0.5 nM PCSK9, 1.25 nM Strep-Eu, and 960 nM AF cyclic peptide. The reaction was incubated at room temperature for at least two hours prior to fluorescence measurements using an Envision Multilabel Reader. IC50 values were determined by fitting data to a sigmoidal dose-response curve using nonlinear regression. Ki was then calculated from the IC50 and the KD of AF cyclic peptide. Counts (B-counts) of the europium-labeled PCSK9 were followed to observe if compounds were adversely affecting PCSK9. A fall off of the B-counts likely indicated a false positive of inhibition. Data from this procedure was reported as “P=‘numerical value’ (nanomolar)”
# [2] = target: human PCSK9 / human LDLR EGFa domain interaction (Homo sapiens, UniProt Q8NBP7); test: TR-FRET assay of inhibition of the PCSK9-LDLR protein-protein interaction; details: 20 nM avitag-biotinylated human PCSK9, 20 nM his-tagged human LDLR EGFa domain, 2 hours, room temperature
# Outline: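 Biotinylated PCSK9 (20 nM) and His-tagged LDLR EGFa domain (20 nM) were incubated 2 h at room temperature with 5 nM Ulight-streptavidin and 5 nM Eu-anti-His in HEPES/NaCl/CaCl2 buffer with 0.01% BSA and 0.01% P20. TR-FRET was read; half-maximal inhibitory concentrations came from 4-parameter dose-response fits.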
# [3] = target: T1, PCSK9; test: PCSK9 Alexa FRET Standard assay (displacement of AlexaFluor647 tagged cyclic peptide Reagent A); details: 0.5 nM PCSK9, 20 nM AF cyclic peptide Reagent A
# Outline: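 TR-FRET displacement: 0.5 nM biotinylated PCSK9 with 1.25 nM Strep-Eu and 20 nM AlexaFluor-tagged cyclic peptide (final) in 50 mM HEPES pH 7.4, 0.15 M NaCl, 5 mM CaCl2, 0.01% BSA, 0.01% P20, ≥2 h at room temperature. IC50 from sigmoidal fit, converted to Ki via peptide KD; falling Eu counts flagged false positives.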
# T1 sequence (Q8NBP7 153-692): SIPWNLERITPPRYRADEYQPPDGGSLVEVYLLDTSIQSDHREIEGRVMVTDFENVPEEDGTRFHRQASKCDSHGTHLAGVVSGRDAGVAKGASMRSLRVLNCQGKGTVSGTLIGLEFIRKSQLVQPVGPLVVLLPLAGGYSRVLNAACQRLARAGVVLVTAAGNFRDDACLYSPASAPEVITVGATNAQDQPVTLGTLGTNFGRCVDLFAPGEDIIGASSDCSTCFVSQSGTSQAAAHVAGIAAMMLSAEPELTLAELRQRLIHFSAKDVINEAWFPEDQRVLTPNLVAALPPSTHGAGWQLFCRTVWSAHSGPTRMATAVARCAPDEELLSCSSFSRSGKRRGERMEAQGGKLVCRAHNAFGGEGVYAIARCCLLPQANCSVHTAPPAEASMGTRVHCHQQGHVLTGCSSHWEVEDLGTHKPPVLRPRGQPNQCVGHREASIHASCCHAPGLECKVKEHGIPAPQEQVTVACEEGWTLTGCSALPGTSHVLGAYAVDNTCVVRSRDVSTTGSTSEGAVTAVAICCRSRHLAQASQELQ
# Chain of human PCSK9 / human LDLR EGFa domain interaction (Q8NBP7 153-692): as above
# Chain of human PCSK9 / human LDLR EGFa domain interaction (Q8NBP7 31-152 partner limits assumed): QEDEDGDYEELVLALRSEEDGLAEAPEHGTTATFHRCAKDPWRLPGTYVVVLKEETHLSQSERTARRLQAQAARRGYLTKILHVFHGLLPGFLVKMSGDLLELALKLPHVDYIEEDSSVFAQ
IC50 [1] [nM],IC50 [2] [nM],IC50 [3] [nM],Structure (SMILES)
250 to 2000,21000 to 50000,1000 to 21000,CC(=O)N[C@H]1CSCc2cccc(c2)CSC[C@H](C(N)=O)NC(=O)[C@H]([C@@H](C)O)NC(=O)[C@](C)(C(C)C)NC(=O)[C@H](Cc2ccc(O)cc2)NC(=O)[C@H](C)NC(=O)[C@](C)(c2ccccc2)NC(=O)[C@H](Cc2c[nH]c3ncccc23)NC(=O)[C@H]([C@@H](C)O)NC(=O)[C@@H]2CCCN2C(=O)[C@H](Cc2ccc(O)cc2)NC(=O)[C@H](C(C)(C)C)NC1=O [Compound 190] (Ac-C[Tle]YPT[Trp(7-aza)][X1]AY[αMeV]T[dC]-NH2; linker 1-12 via mXylylene)
1 to 100,1 to 100,1 to 100,CC(=O)N[C@H]1CSCc2cccc(c2)CSC[C@H](C(N)=O)NC(=O)[C@H]([C@@H](C)O)NC(=O)[C@](C)(C(C)C)NC(=O)[C@H](Cc2ccc(O)cc2)NC(=O)[C@H](C)NC(=O)C2(CCOCC2)NC(=O)[C@H](Cc2c[nH]c3ncccc23)NC(=O)[C@H]([C@@H](C)O)NC(=O)[C@@H]2CCCN2C(=O)[C@H](Cc2ccc(O)cc2)NC(=O)[C@H](C(C)(C)C)NC1=O [Compound 187] (Ac-C[Tle]YPT[Trp(7-aza)][Thp]AY[αMeV]T[dC]-NH2; linker 1-12 via mXylylene)
